Reference: ChEMBL document CHEMBL1152361, “The application of phosphoramidate ProTide technology to the potent anti-HCV compound 4'-azidocytidine (R1479)” (Bioorg Med Chem Lett, 2009)

Tested on: Hepatitis C virus
Experiment: Antiviral activity against HCV Con1 GT1b by replicon assay
Format: functional, organism-based, Hepacivirus hominis
Details: not given

EC50 [µM]	Structure (SMILES)
15	CC(C)OC(=O)CNP(=O)(OC[C@@]1(N=[N+]=[N-])O[C@@H](n2ccc(N)nc2=O)[C@H](O)[C@@H]1O)Oc1ccccc1 (single isomer, unassigned; Diastereomer 1)
4.5	CC(C)OC(=O)CNP(=O)(OC[C@@]1(N=[N+]=[N-])O[C@@H](n2ccc(N)nc2=O)[C@H](O)[C@@H]1O)Oc1ccccc1 (stereo partly drawn)
4.3	C[C@H](NP(=O)(OC[C@@]1(N=[N+]=[N-])O[C@@H](n2ccc(N)nc2=O)[C@H](O)[C@@H]1O)Oc1ccc2ccccc2c1)C(=O)OCc1ccccc1 (single isomer, unassigned; diastereomer 1)

Structure (SMILES)	EC50 [µM]
C[C@H](NP(=O)(OC[C@@]1(N=[N+]=[N-])O[C@@H](n2ccc(N)nc2=O)[C@H](O)[C@@H]1O)Oc1cccc2ccccc12)C(=O)OCc1ccccc1 (stereo partly drawn)	0.95

Same assay, conditions: Hepatitis C virus, Con1 GT1b

IC50 [µM]	Structure (SMILES)	EC50 [µM]
–	C[C@@H](NP(=O)(OC[C@@]1(N=[N+]=[N-])O[C@@H](n2ccc(N)nc2=O)[C@H](O)[C@@H]1O)Oc1ccccc1)C(=O)OCc1ccccc1 (stereo partly drawn)	2.2
–	CCOC(=O)[C@@H](NP(=O)(OC[C@@]1(N=[N+]=[N-])O[C@@H](n2ccc(N)nc2=O)[C@H](O)[C@@H]1O)Oc1ccccc1)[C@@H](C)CC (stereo partly drawn)	> 100
–	CC(C)OC(=O)[C@H](Cc1ccccc1)NP(=O)(OC[C@@]1(N=[N+]=[N-])O[C@@H](n2ccc(N)nc2=O)[C@H](O)[C@@H]1O)Oc1ccccc1 (stereo partly drawn)	2.9
–	CCC(C)OC(=O)[C@H](C)NP(=O)(OC[C@@]1(N=[N+]=[N-])O[C@@H](n2ccc(N)nc2=O)[C@H](O)[C@@H]1O)Oc1ccccc1 (stereo partly drawn)	0.62
–	COC(=O)[C@H](C)NP(=O)(OC[C@@]1(N=[N+]=[N-])O[C@@H](n2ccc(N)nc2=O)[C@H](O)[C@@H]1O)Oc1ccccc1 (stereo partly drawn)	3.1
–	CCOC(=O)[C@@H]1CCCN1P(=O)(OC[C@@]1(N=[N+]=[N-])O[C@@H](n2ccc(N)nc2=O)[C@H](O)[C@@H]1O)Oc1ccccc1 (stereo partly drawn)	> 100
7.7	[N-]=[N+]=N[C@]1(COP(=O)(N[C@@H](Cc2ccccc2)C(=O)OCc2ccccc2)Oc2ccccc2)O[C@@H](n2ccc(N)nc2=O)[C@H](O)[C@@H]1O (stereo partly drawn)	–
–	CCOC(=O)[C@H](CC(C)C)NP(=O)(OC[C@@]1(N=[N+]=[N-])O[C@@H](n2ccc(N)nc2=O)[C@H](O)[C@@H]1O)Oc1ccc(Cl)c(Cl)c1 (stereo partly drawn)	2.3
–	C[C@H](NP(=O)(OC[C@@]1(N=[N+]=[N-])O[C@@H](n2ccc(N)nc2=O)[C@H](O)[C@@H]1O)Oc1ccc2ccccc2c1)C(=O)OCc1ccccc1 (single isomer, unassigned; diastereomer 2)	2.9
–	CCOC(=O)[C@H](CC(C)C)NP(=O)(OC[C@@]1(N=[N+]=[N-])O[C@@H](n2ccc(N)nc2=O)[C@H](O)[C@@H]1O)Oc1ccc(C)cc1 (stereo partly drawn)	4.3
–	C[C@H](NP(=O)(OC[C@@]1(N=[N+]=[N-])O[C@@H](n2ccc(N)nc2=O)[C@H](O)[C@@H]1O)Oc1cccc2ccccc12)C(=O)OCc1ccccc1 (single isomer, unassigned; diastereomer 2)	1.2
–	CCOC(=O)[C@H](Cc1ccccc1)NP(=O)(OC[C@@]1(N=[N+]=[N-])O[C@@H](n2ccc(N)nc2=O)[C@H](O)[C@@H]1O)Oc1ccccc1 (stereo partly drawn)	11
–	C[C@H](NP(=O)(OC[C@@]1(N=[N+]=[N-])O[C@@H](n2ccc(N)nc2=O)[C@H](O)[C@@H]1O)Oc1ccc(Cl)c(Cl)c1)C(=O)OCc1ccccc1 (stereo partly drawn)	9.2
–	CCCCOC(=O)[C@H](C)NP(=O)(OC[C@@]1(N=[N+]=[N-])O[C@@H](n2ccc(N)nc2=O)[C@H](O)[C@@H]1O)Oc1ccccc1 (stereo partly drawn)	11
4.4	CCOC(=O)C[C@H](NP(=O)(OC[C@@]1(N=[N+]=[N-])O[C@@H](n2ccc(N)nc2=O)[C@H](O)[C@@H]1O)Oc1ccccc1)C(=O)OCC (stereo partly drawn)	–
–	C[C@H](NP(=O)(OC[C@@]1(N=[N+]=[N-])O[C@@H](n2ccc(N)nc2=O)[C@H](O)[C@@H]1O)Oc1cccc(Cl)c1)C(=O)OCc1ccccc1 (stereo partly drawn)	3.7
–	[N-]=[N+]=N[C@]1(CO)O[C@@H](n2ccc(N)nc2=O)[C@H](O)[C@@H]1O [4'-AZIDOCYTIDINE]	1.28
–	COc1ccc(OP(=O)(N[C@@H](C)C(=O)OCc2ccccc2)OC[C@@]2(N=[N+]=[N-])O[C@@H](n3ccc(N)nc3=O)[C@H](O)[C@@H]2O)cc1 (stereo partly drawn)	> 100
–	CC(C)[C@H](NP(=O)(OC[C@@]1(N=[N+]=[N-])O[C@@H](n2ccc(N)nc2=O)[C@H](O)[C@@H]1O)Oc1ccccc1)C(=O)OCc1ccccc1 (stereo partly drawn)	5.6
–	CCOC(=O)[C@@H](C)NP(=O)(OC[C@@]1(N=[N+]=[N-])O[C@@H](n2ccc(N)nc2=O)[C@H](O)[C@@H]1O)Oc1ccccc1 (stereo partly drawn)	2.3
–	C[C@H](NP(=O)(OC[C@@]1(N=[N+]=[N-])O[C@@H](n2ccc(N)nc2=O)[C@H](O)[C@@H]1O)Oc1ccc(Cl)cc1)C(=O)OCc1ccccc1 (stereo partly drawn)	6.2
–	C[C@H](NP(=O)(OC[C@@]1(N=[N+]=[N-])O[C@@H](n2ccc(N)nc2=O)[C@H](O)[C@@H]1O)Oc1ccccc1)C(=O)Oc1ccccc1 (stereo partly drawn)	2.9
–	COc1cccc(OP(=O)(N[C@@H](C)C(=O)OCc2ccccc2)OC[C@@]2(N=[N+]=[N-])O[C@@H](n3ccc(N)nc3=O)[C@H](O)[C@@H]2O)c1 (stereo partly drawn)	8.8
44	CCOC(=O)CC[C@H](NP(=O)(OC[C@@]1(N=[N+]=[N-])O[C@@H](n2ccc(N)nc2=O)[C@H](O)[C@@H]1O)Oc1ccccc1)C(=O)OCC (stereo partly drawn)	–

IC50 [µM]	Structure (SMILES)	EC50 [µM]
–	CCOC(=O)[C@H](C)NP(=O)(OC[C@@]1(N=[N+]=[N-])O[C@@H](n2ccc(N)nc2=O)[C@H](O)[C@@H]1O)Oc1ccc(C)cc1 (stereo partly drawn)	2.9
–	CCOC(=O)[C@H](C)NP(=O)(OC[C@@]1(N=[N+]=[N-])O[C@@H](n2ccc(N)nc2=O)[C@H](O)[C@@H]1O)Oc1ccccc1 (stereo partly drawn)	0.38
–	CCOC(=O)[C@H](C)NP(=O)(OC[C@@]1(N=[N+]=[N-])O[C@@H](n2ccc(N)nc2=O)[C@H](O)[C@@H]1O)Oc1c(OC)cccc1OC (stereo partly drawn)	4.1
–	CCOC(=O)[C@H](CC(C)C)NP(=O)(OC[C@@]1(N=[N+]=[N-])O[C@@H](n2ccc(N)nc2=O)[C@H](O)[C@@H]1O)Oc1ccc(Cl)cc1 (stereo partly drawn)	2.5
–	CCOC(=O)[C@H](CC(C)C)NP(=O)(OC[C@@]1(N=[N+]=[N-])O[C@@H](n2ccc(N)nc2=O)[C@H](O)[C@@H]1O)Oc1ccc(OC)cc1 (stereo partly drawn)	9.3
47	CCOC(=O)CCNP(=O)(OC[C@@]1(N=[N+]=[N-])O[C@@H](n2ccc(N)nc2=O)[C@H](O)[C@@H]1O)Oc1ccccc1 (stereo partly drawn)	–
–	CCCCCCCCCCCCOC(=O)[C@@H](C)NP(=O)(OC[C@@]1(N=[N+]=[N-])O[C@@H](n2ccc(N)nc2=O)[C@H](O)[C@@H]1O)Oc1ccccc1 (stereo partly drawn)	30
–	COc1ccccc1OP(=O)(N[C@@H](C)C(=O)OCc1ccccc1)OC[C@@]1(N=[N+]=[N-])O[C@@H](n2ccc(N)nc2=O)[C@H](O)[C@@H]1O (stereo partly drawn)	2.3
–	C[C@H](NP(=O)(OC[C@@]1(N=[N+]=[N-])O[C@@H](n2ccc(N)nc2=O)[C@H](O)[C@@H]1O)Oc1ccc(Br)cc1)C(=O)OCc1ccccc1 (stereo partly drawn)	6.5
–	CC(C)OC(=O)C(C)(C)NP(=O)(OC[C@@]1(N=[N+]=[N-])O[C@@H](n2ccc(N)nc2=O)[C@H](O)[C@@H]1O)Oc1ccccc1 (stereo partly drawn)	3.1
–	C[C@H](NP(=O)(OC[C@@]1(N=[N+]=[N-])O[C@@H](n2ccc(N)nc2=O)[C@H](O)[C@@H]1O)Oc1ccccc1)C(=O)OC(C)(C)C (stereo partly drawn)	0.72
–	Cc1ccc(OP(=O)(N[C@@H](C)C(=O)OCc2ccccc2)OC[C@@]2(N=[N+]=[N-])O[C@@H](n3ccc(N)nc3=O)[C@H](O)[C@@H]2O)cc1 (stereo partly drawn)	0.51
–	CCCCOC(=O)[C@@H](C)NP(=O)(OC[C@@]1(N=[N+]=[N-])O[C@@H](n2ccc(N)nc2=O)[C@H](O)[C@@H]1O)Oc1ccccc1 (stereo partly drawn)	0.94
–	CC(C)C[C@H](NP(=O)(OC[C@@]1(N=[N+]=[N-])O[C@@H](n2ccc(N)nc2=O)[C@H](O)[C@@H]1O)Oc1ccccc1)C(=O)OC(C)C (stereo partly drawn)	> 100
–	CCOC(=O)[C@H](CCSC)NP(=O)(OC[C@@]1(N=[N+]=[N-])O[C@@H](n2ccc(N)nc2=O)[C@H](O)[C@@H]1O)Oc1ccccc1 (stereo partly drawn)	18
6.7	CC(C)(C)OC(=O)[C@H](Cc1ccccc1)NP(=O)(OC[C@@]1(N=[N+]=[N-])O[C@@H](n2ccc(N)nc2=O)[C@H](O)[C@@H]1O)Oc1ccccc1 (stereo partly drawn)	–
–	[N-]=[N+]=N[C@]1(COP(=O)(NCC(=O)OCc2ccccc2)Oc2ccccc2)O[C@@H](n2ccc(N)nc2=O)[C@H](O)[C@@H]1O (stereo partly drawn)	2.1
–	CCOC(=O)[C@H](CC(C)C)NP(=O)(OC[C@@]1(N=[N+]=[N-])O[C@@H](n2ccc(N)nc2=O)[C@H](O)[C@@H]1O)Oc1ccccc1 (stereo partly drawn)	11
–	C[C@@H](NP(=O)(OC[C@@]1(N=[N+]=[N-])O[C@@H](n2ccc(N)nc2=O)[C@H](O)[C@@H]1O)Oc1ccccc1)C(=O)OC(C)(C)C (stereo partly drawn)	> 100
–	CC(C)(NP(=O)(OC[C@@]1(N=[N+]=[N-])O[C@@H](n2ccc(N)nc2=O)[C@H](O)[C@@H]1O)Oc1ccccc1)C(=O)OCc1ccccc1 (stereo partly drawn)	9.2
–	C[C@H](NP(=O)(OC[C@@]1(N=[N+]=[N-])O[C@@H](n2ccc(N)nc2=O)[C@H](O)[C@@H]1O)Oc1ccccc1Cl)C(=O)OCc1ccccc1 (stereo partly drawn)	3.5
–	Cc1ccccc1OP(=O)(N[C@@H](C)C(=O)OCc1ccccc1)OC[C@@]1(N=[N+]=[N-])O[C@@H](n2ccc(N)nc2=O)[C@H](O)[C@@H]1O (stereo partly drawn)	1.3
–	C[C@H](NP(=O)(OC[C@@]1(N=[N+]=[N-])O[C@@H](n2ccc(N)nc2=O)[C@H](O)[C@@H]1O)Oc1ccccc1)C(=O)OCc1ccccc1 (stereo partly drawn)	6
–	CC(C)OC(=O)[C@H](C)NP(=O)(OC[C@@]1(N=[N+]=[N-])O[C@@H](n2ccc(N)nc2=O)[C@H](O)[C@@H]1O)Oc1ccccc1 (stereo partly drawn)	0.99

Structure (SMILES)	IC50 [µM]	EC50 [µM]
CCOC(=O)CN(C)P(=O)(OC[C@@]1(N=[N+]=[N-])O[C@@H](n2ccc(N)nc2=O)[C@H](O)[C@@H]1O)Oc1ccccc1 (stereo partly drawn)	48	–
CC(C)C[C@@H](NP(=O)(OC[C@@]1(N=[N+]=[N-])O[C@@H](n2ccc(N)nc2=O)[C@H](O)[C@@H]1O)Oc1ccccc1)C(=O)OCc1ccccc1 (stereo partly drawn)	4.2	–
CCOC(=O)C1(NP(=O)(OC[C@@]2(N=[N+]=[N-])O[C@@H](n3ccc(N)nc3=O)[C@H](O)[C@@H]2O)Oc2ccccc2)CCCC1 (stereo partly drawn)	56	–

Tested on: Hepatitis C virus
Experiment: Antiviral activity against HCV Con1 GT1b at 100 uM by replicon assay
Format: functional, Hepacivirus hominis
Details: not given

Structure (SMILES)	inhibition at 100 µM [%]
[N-]=[N+]=N[C@]1(COP(=O)(N[C@@H](Cc2ccccc2)C(=O)OCc2ccccc2)Oc2ccccc2)O[C@@H](n2ccc(N)nc2=O)[C@H](O)[C@@H]1O (stereo partly drawn)	89
CCOC(=O)CN(C)P(=O)(OC[C@@]1(N=[N+]=[N-])O[C@@H](n2ccc(N)nc2=O)[C@H](O)[C@@H]1O)Oc1ccccc1 (stereo partly drawn)	72
CCOC(=O)C[C@H](NP(=O)(OC[C@@]1(N=[N+]=[N-])O[C@@H](n2ccc(N)nc2=O)[C@H](O)[C@@H]1O)Oc1ccccc1)C(=O)OCC (stereo partly drawn)	88
CC(C)C[C@@H](NP(=O)(OC[C@@]1(N=[N+]=[N-])O[C@@H](n2ccc(N)nc2=O)[C@H](O)[C@@H]1O)Oc1ccccc1)C(=O)OCc1ccccc1 (stereo partly drawn)	88
CCOC(=O)C1(NP(=O)(OC[C@@]2(N=[N+]=[N-])O[C@@H](n3ccc(N)nc3=O)[C@H](O)[C@@H]2O)Oc2ccccc2)CCCC1 (stereo partly drawn)	69
CCOC(=O)CC[C@H](NP(=O)(OC[C@@]1(N=[N+]=[N-])O[C@@H](n2ccc(N)nc2=O)[C@H](O)[C@@H]1O)Oc1ccccc1)C(=O)OCC (stereo partly drawn)	74
CCOC(=O)CCNP(=O)(OC[C@@]1(N=[N+]=[N-])O[C@@H](n2ccc(N)nc2=O)[C@H](O)[C@@H]1O)Oc1ccccc1 (stereo partly drawn)	77
CC(C)(C)OC(=O)[C@H](Cc1ccccc1)NP(=O)(OC[C@@]1(N=[N+]=[N-])O[C@@H](n2ccc(N)nc2=O)[C@H](O)[C@@H]1O)Oc1ccccc1 (stereo partly drawn)	84
